Structures can show the parent of a compound that is named as a salt. Where two headings read alike, the source gives them in different places. Starred links: 1 amine or outer side, 2 acyl side, 3 side chain; linkers in the order of their positions; H or OH if unused. Positions of bridges follow the written chain, without caps; N, C: chain ends. Non-standard residues stand in square brackets, D forms with d. Residues, ends and D or L forms follow the SMILES beside them. Chains are numbered I, II in the order given. Actinocin(9to1) = Cc1c2oc3c(C)ccc(C(=O)[*:1])c3nc-2c(C(=O)[*:2])c(N)c1=O; NMeV = CN[C@H](C(=O)O)C(C)C; Sar = CNCC(=O)O
Test system: GH3-TRE-Luc cell line
Settings: read-out: AC50 (uM) modified / 1000, viability, 1 nM T3 present, 24 h

In the case of `COC(=O)Nc1nc2ccc(Sc3ccccc3)cc2[nH]1` [Fenbendazole], the CC50 (Tox21_110001=Tox21_110649) is reported as 0.23 µM and the CC50 (Tox21_110001=Tox21_301828) is reported as 1.53 µM.
Work on `CCCCCCCCCCCCn1cc[n+](C)c1` [1-Dodecyl-3-methylimidazolium tetrafluoroborate] yielded a CC50 (Tox21_110001=Tox21_202629) of 3.46 µM.
In the case of `CC[C@H]1CN2CCc3cc(OC)c(OC)cc3[C@@H]2C[C@@H]1C[C@H]1NCCc2cc(OC)c(OC)cc21` [Emetine], the CC50 (Tox21_110001=Tox21_110901) is reported as 0.0872 µM.
For `C=C(CC)C(=O)c1ccc(OCC(=O)O)c(Cl)c1Cl` [Ethacrynic acid], the CC50 (Tox21_110001=Tox21_110335) was 27 µM and the CC50 (Tox21_110001=Tox21_201102) was 65.9 µM.
Molecule `Oc1ccc(OCc2ccccc2)cc1` [4-(Benzyloxyl)phenol] has a CC50 (Tox21_110001=Tox21_110396) of 4.58 µM and a CC50 (Tox21_110001=Tox21_201147) of 10.2 µM.
`CCN(CC)C(=S)SSC(=S)N(CC)CC` [Disulfiram] showed a CC50 (Tox21_110001=Tox21_110280) of 19.9 µM, a CC50 (Tox21_110001=Tox21_300403) of 0.0747 µM and a CC50 (Tox21_110001=Tox21_400072) of 81.5 µM.
`CN(C)CCCN1c2ccccc2CCc2ccccc21` [Imipramine] was tested, and the CC50 (Tox21_110001=Tox21_110174) was 9.04 µM and the CC50 (Tox21_110001=Tox21_301417) was 19.5 µM.
Work on `CN(Cc1cnc2nc(N)nc(N)c2n1)c1ccc(C(=O)N[C@@H](CCC(=O)O)C(=O)O)cc1` [Methotrexate] yielded a CC50 (Tox21_110001=Tox21_300269) of 0.164 µM.
In the case of `CCCCCCCC[N+](C)(CCCCCCCC)CCCCCCCC` [Methyltrioctylammonium chloride], the CC50 (Tox21_110001=Tox21_302198) is reported as 5.04 µM.
For `COc1ccc(C(=O)CC(=O)c2ccc(C(C)(C)C)cc2)cc1` [1-(4-tert-Butylphenyl)-3-(4-methoxyphenyl)propane-1,3-dione], the CC50 (Tox21_110001=Tox21_111427) was 24.3 µM and the CC50 (Tox21_110001=Tox21_202796) was 71.9 µM.
`CC(=C(CCO)SSCC1CCCO1)N(C=O)Cc1cnc(C)nc1N` (stereo in doubt) [Fursultiamine] was tested, and the CC50 (Tox21_110001=Tox21_112989) was 34.7 µM.
In the case of `CCCCCCCCCCCC(=O)O` [Triethanolamine Laurate], the CC50 (Tox21_110001=Tox21_302696) is reported as 85.4 µM.
`CC(C)NCC(O)COc1cccc2ccccc12` (stereo not shown) [Propranolol hydrochloride] was tested, and the CC50 (Tox21_110001=Tox21_201886) was 73 µM and the CC50 (Tox21_110001=Tox21_302905) was 30.5 µM.
`CNCCC(Oc1ccc(C(F)(F)F)cc1)c1ccccc1` (stereo not shown) [Fluoxetine] was tested, and the CC50 (Tox21_110001=Tox21_110144) was 8.3 µM.
`CCCCCCCCCCCCCCCCn1cc[n+](C)c1` [1-Hexadecyl-3-methylimidazolium chloride] showed a CC50 (Tox21_110001=Tox21_200600) of 21.4 µM.
Work on `CCCCCCCCCCCCN` [Dodecylamine hydrochloride] yielded a CC50 (Tox21_110001=Tox21_301702) of 19.6 µM.
With `CN(C)c1ccc(C(=C2C=CC(=[N+](C)C)C=C2)c2ccc(N(C)C)cc2)cc1` [Gentian Violet] the CC50 (Tox21_110001=Tox21_111084) was 1.65 µM, the CC50 (Tox21_110001=Tox21_201762) was 0.893 µM and the CC50 (Tox21_110001=Tox21_300571) was 0.536 µM.
In the case of `NNc1nncc2ccccc12` [Hydralazine hydrochloride], the CC50 (Tox21_110001=Tox21_302496) is reported as 73.4 µM.
With `Nc1ccn([C@@H]2O[C@H](CO)[C@@H](O)[C@@H]2O)c(=O)n1` [Cytarabine] the CC50 (Tox21_110001=Tox21_111203) was 0.708 µM and the CC50 (Tox21_110001=Tox21_301971) was 0.237 µM.
Work on `NCCc1ccc(O)c(O)c1` [Dopamine] yielded a CC50 (Tox21_110001=Tox21_110167) of 37 µM.
`O=c1[nH]cc(F)c(=O)[nH]1` [5-Fluorouracil] was tested, and the CC50 (Tox21_110001=Tox21_202335) was 16.7 µM and the CC50 (Tox21_110001=Tox21_300112) was 30.2 µM.
In the case of `CCCCCCCCCCn1cc[n+](C)c1` [1-Decyl-3-methylimidazolium tetrafluoroborate], the CC50 (Tox21_110001=Tox21_200592) is reported as 13.1 µM.
In the case of `CC/N=c1\cc2oc3cc(NCC)c(C)cc3c(-c3ccccc3C(=O)OCC)c-2cc1C` [Rhodamine 6G], the CC50 (Tox21_110001=Tox21_201597) is reported as 0.49 µM and the CC50 (Tox21_110001=Tox21_302898) is reported as 1.44 µM.
`CC1=CC(=O)c2ccccc2C1=O` [Menadione] showed a CC50 (Tox21_110001=Tox21_301367) of 13 µM.
`COc1ccc(C(Cl)=C(c2ccc(OC)cc2)c2ccc(OC)cc2)cc1` [Chlorotrianisene] gave a CC50 (Tox21_110001=Tox21_202361) of 13.6 µM.
Molecule `CCCCCCCCCCCC[N+](C)(C)Cc1ccccc1` [Benzyldodecyldimethylammonium bromide] has a CC50 (Tox21_110001=Tox21_113091) of 5.39 µM.
Work on `N=C(N)c1ccc(OCCCCCOc2ccc(C(=N)N)cc2)cc1` [Pentamidine isethionate] yielded a CC50 (Tox21_110001=Tox21_110742) of 23.4 µM, a CC50 (Tox21_110001=Tox21_201722) of 63.5 µM and a CC50 (Tox21_110001=Tox21_300312) of 41 µM.
`O=[N+]([O-])c1ccc(O)cc1` [Sodium 4-nitrophenolate] gave a CC50 (Tox21_110001=Tox21_300477) of 44.7 µM.
`COC(=O)Nc1nc2ccccc2[nH]1` [Carbendazim] gave a CC50 (Tox21_110001=Tox21_300478) of 11.4 µM.
In the case of `C=C1C(CCl)(CCl)C2(Cl)C(Cl)C(Cl)C1(Cl)C2(Cl)Cl` (stereo not shown) [Toxaphene], the CC50 (Tox21_110001=Tox21_111173) is reported as 5.43 µM and the CC50 (Tox21_110001=Tox21_200912) is reported as 23.5 µM.
For `CC/C(=C(\c1ccc(O)cc1)c1ccc(OCCN(C)C)cc1)c1ccccc1` [(Z)-4-Hydroxytamoxifen], the CC50 (Tox21_110001=Tox21_200943) was 5.77 µM.
Molecule `CN1CCCCC1CCN1c2ccccc2Sc2ccc([S+](C)[O-])cc21` (stereo not shown) [Mesoridazine] has a CC50 (Tox21_110001=Tox21_112018) of 18.9 µM.
Molecule `Nc1ccc(Nc2ccccc2)cc1` [N-Phenyl-1,4-benzenediamine] has a CC50 (Tox21_110001=Tox21_202144) of 42.9 µM and a CC50 (Tox21_110001=Tox21_300027) of 22.6 µM.
Molecule `Cc1c2oc3c(C)ccc(C(=O)N[C@@H]4C(=O)N[C@H](C(C)C)C(=O)N5CCC[C@H]5C(=O)N(C)CC(=O)N(C)[C@@H](C(C)C)C(=O)O[C@@H]4C)c3nc-2c(C(=O)N[C@@H]2C(=O)N[C@H](C(C)C)C(=O)N3CCC[C@H]3C(=O)N(C)CC(=O)N(C)[C@@H](C(C)C)C(=O)O[C@@H]2C)c(N)c1=O` [Actinomycin D] (I: T[dV]P[Sar][NMeV] / II: T[dV]P[Sar][NMeV]; ester I:1-I:C, II:1-II:C; linker I:N-II:N via Actinocin(9to1)) has a CC50 (Tox21_110001=Tox21_111997) of 0.00788 µM and a CC50 (Tox21_110001=Tox21_202482) of 0.000903 µM.
